# How the values were obtained:
# human factor Xa = human factor Xa (Homo sapiens, UniProt P00742); assay: Chromogenic factor Xa inhibition assay in plasma samples pretreated with oxidizing agent (sodium hypochlorite) and neutralizing agent (HCl); assay type: biochemical; conditions: for ΔA/min (conversion of chromogenic factor Xa substrate): plasma without inhibitor 2268
# Description: (§1) Various amounts of direct coagulation factor inhibitors (rivaroxaban as direct factor Xa inhibitor, argatroban as direct thrombin inhibitor) or indirect coagulation factor inhibitors (fondaparinux pentasaccharide [Arixtra®], high-molecular-weight heparin [HMWH]) were added to normal human plasma.
# (§2) 20 μl of plasma sample were mixed with 10 μl of a 0.1% strength hypochlorous acid (sodium hypochlorite) as oxidizing agent, and the reaction mix was incubated at +37° C. for 30 seconds. Subsequently, 10 μl of a 0.1% strength hydrochloric acid solution were added to the reaction mix to neutralize the oxidizing agent, and the reaction mix was incubated at +37° C. for 30 seconds. Subsequently, 95 μl of factor Xa reagent (human factor Xa, 1 U/ml in TRIS buffer, pH 8.0) were added to the reaction mix, and the reaction mix was incubated at +37° C. for 30 seconds. Subsequently, 80 μl of a chromogenic factor Xa substrate (Z-D-Leu-Gly-Arg-ANBA-methylamide, 4 mmol/l) were added to the reaction mix, and conversion of the substrate (in ΔA/time) was determined at a wavelength of 405 nm in an automated coagulation measurement instrument (BCS® System, Siemens Healthcare Diagnostics).
# (§3) The reduction in substrate conversion compared to plasma without any inhibitors correlates with the amount of inhibitor in the sample.
# bovine thrombin = bovine thrombin (Bos taurus, UniProt P00735); assay: Chromogenic thrombin inhibition assay in plasma samples pretreated with oxidizing agent (sodium hypochlorite) and neutralizing agent (HCl); assay type: biochemical; conditions: for ΔA/min (conversion of chromogenic thrombin substrate): plasma without inhibitor 2623
# Description: as §1
# as §2, with “140” for “95”, “thrombin” for “factor Xa”, “(bovine thrombin, 6 U/ml)” for “(human factor Xa, 1 U/ml in TRIS buffer, pH 8.0)”, “50” for “80”, “(Tos-L-Gly-Pro-Arg-ANBA-isopropylamide,” for “(Z-D-Leu-Gly-Arg-ANBA-methylamide,”
# as §3
# [1] = 20 μg/ml in normal human plasma, pretreated sample
# [2] = plasma samples containing the substance
# [3] = 200 μg/ml in normal human plasma, pretreated sample
# [4] = pretreatment with hypochlorite then HCl
# [5] = 200 ng/ml in normal human plasma, pretreated sample
# Chain of human factor Xa (P00742 235-488 limits assumed): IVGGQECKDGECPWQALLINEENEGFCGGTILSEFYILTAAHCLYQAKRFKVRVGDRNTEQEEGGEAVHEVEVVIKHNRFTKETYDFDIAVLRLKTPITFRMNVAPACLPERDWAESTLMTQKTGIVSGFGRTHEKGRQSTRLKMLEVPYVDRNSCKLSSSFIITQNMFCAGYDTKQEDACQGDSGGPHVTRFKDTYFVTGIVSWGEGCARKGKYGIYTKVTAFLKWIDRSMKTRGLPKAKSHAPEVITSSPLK
# Chain of human factor Xa (P00742 41-179 partner limits assumed): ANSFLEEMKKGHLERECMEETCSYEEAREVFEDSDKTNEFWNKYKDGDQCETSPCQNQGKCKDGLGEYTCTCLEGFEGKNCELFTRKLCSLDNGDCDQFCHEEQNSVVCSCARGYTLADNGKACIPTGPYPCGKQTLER
structure (smiles),measurement,setting,value
CC1CNc2c(cccc2S(=O)(=O)N[C@@H](CCCNC(=N)N)C(=O)N2CC[C@@H](C)C[C@@H]2C(=O)O)C1 (stereo partly drawn) [argatroban],ΔA/min (conversion of chromogenic factor Xa substrate),human factor Xa; [1],2176 ΔA/min
same,inhibition at 20 µg/mL,"human factor Xa; 20 μg/ml in normal human plasma, pretreated sample, read-out: FXa inhibition",4%
same,factor Xa inhibition (in words),human factor Xa; [2],factor Xa inhibition does not take place
same,inhibition at 20 µg/mL,bovine thrombin; [1],95%
same,ΔA/min (conversion of chromogenic thrombin substrate),bovine thrombin; [1],140 ΔA/min
same,inhibition at 200 µg/mL,bovine thrombin; [3],99%
same,ΔA/min (conversion of chromogenic thrombin substrate),bovine thrombin; [3],36 ΔA/min
same,effect of pretreatment of the samples on the inhibition of thrombin by the substance (in words),bovine thrombin; [4],not impaired
"CO[C@H]1O[C@H](COS(=O)(=O)O)[C@@H](O[C@@H]2O[C@@H](C(=O)O)[C@@H](O[C@H]3O[C@H](COS(=O)(=O)O)[C@@H](O[C@@H]4O[C@H](C(=O)O)[C@@H](O[C@H]5O[C@H](COS(=O)(=O)O)[C@@H](O)[C@H](O)[C@H]5NS(=O)(=O)O)[C@H](O)[C@H]4O)[C@H](OS(=O)(=O)O)[C@H]3NS(=O)(=O)O)[C@H](O)[C@H]2OS(=O)(=O)O)[C@H](O)[C@H]1NS(=O)(=O)O [Arixtra, fondaparinux]",inhibition at 1 µg/mL,"human factor Xa; 1 μg/ml in normal human plasma, pretreated sample, read-out: FXa inhibition",4%
same,inhibition at 4 µg/mL,"human factor Xa; 4 μg/ml in normal human plasma, pretreated sample, read-out: FXa inhibition",3%
same,inhibition at 1 µg/mL,"bovine thrombin; 1 μg/ml in normal human plasma, pretreated sample",5%
same,inhibition at 4 µg/mL,"bovine thrombin; 4 μg/ml in normal human plasma, pretreated sample",2%
O=C(NC[C@H]1CN(c2ccc(N3CCOCC3=O)cc2)C(=O)O1)c1ccc(Cl)s1 [rivaroxaban],ΔA/min (conversion of chromogenic factor Xa substrate),human factor Xa; [5],1296 ΔA/min
same,inhibition at 0.2 µg/mL,"human factor Xa; 200 ng/ml in normal human plasma, pretreated sample, read-out: FXa inhibition",43%
same,effect of pretreatment of the samples on the inhibition of factor Xa by the substance (in words),human factor Xa; [4],not impaired
same,inhibition at 0.2 µg/mL,bovine thrombin; [5],0%
same,ΔA/min (conversion of chromogenic thrombin substrate),bovine thrombin; [5],2612 ΔA/min
same,thrombin inhibition (in words),bovine thrombin; [2],thrombin inhibition does not take place

# From patent US8685636B2, “Heparin-insensitive method for determining direct coagulation factor inhibitors” (Siemens Healthcare Diagnostics Products GmbH, priority 2011, dated 2014)
